Test results taken from ChEMBL document CHEMBL4411327, “Discovery of pyrimidine nucleoside dual prodrugs and pyrazine nucleosides as novel anti-HCV agents” (Bioorg Med Chem, 2019).

How the values were obtained:
Hepatitis C virus [1] = test: Antiviral activity against HCV genotype 1b replicon infected in human HuH7 cells at 100 uM after 72 hrs by bright-glo luciferase reporter gene assay relative to control; assay type: functional, Hepacivirus hominis; settings: subtype 1b, Huh-7, 72 h
[2] = Cytotoxicity against human HuH7 cells infected with HCV genotype 1b replicon after 72 hrs by CellTiter-Fluor reagent based fluorescence assay; assay type: cell-based, Huh-7
Hepatitis C virus [3] = test: Antiviral activity against HCV genotype 1b replicon infected in human HuH7 cells after 72 hrs by bright-glo luciferase reporter gene assay; assay type: functional, organism-based, Hepacivirus hominis; settings: subtype 1b, Huh-7, 72 h
Hepatitis C virus [4] = test: Antiviral activity against HCV genotype 1b replicon infected in human HuH7 cells at 10 uM after 72 hrs by bright-glo luciferase reporter gene assay relative to control; assay type: functional, Hepacivirus hominis; settings: subtype 1b, Huh-7, 72 h
Hepatitis C virus [5] = test: Antiviral activity against HCV genotype 1b replicon infected in human HuH7 cells at 20 uM after 72 hrs by bright-glo luciferase reporter gene assay relative to control; assay type: functional, Hepacivirus hominis; settings: subtype 1b, Huh-7, 72 h
[6] = Half life in human plasma at 40 uM by LC-MS/MS analysis; assay type: ADME, cell-free
[7] = Stability in human plasma assessed as parent compound remaining at 40 uM measured immediately by LC-MS/MS analysis; assay type: ADME, cell-free; settings: read-out: Stability
[8] = Stability in human plasma assessed as parent compound remaining at 40 uM measured after 0.5 hrs by LC-MS/MS analysis; assay type: ADME, cell-free; settings: read-out: Stability
[9] = Stability in human plasma assessed as parent compound remaining at 40 uM measured after 1 hr by LC-MS/MS analysis; assay type: ADME, cell-free; settings: read-out: Stability
[10] = Stability in human plasma assessed as parent compound remaining at 40 uM measured after 2 hrs by LC-MS/MS analysis; assay type: ADME, cell-free; settings: read-out: Stability
[11] = Stability in human plasma assessed as parent compound remaining at 40 uM measured after 5 hrs by LC-MS/MS analysis; assay type: ADME, cell-free; settings: read-out: Stability
[12] = Half life in human liver microsomes at 0.1 uM preincubated with MgCl2 for 10 mins followed by NADPH addition by LC-MS/MS analysis; assay type: ADME, Microsome; settings: microsomes, 0.1 µM
[13] = Stability in human liver microsomes assessed as parent compound remaining at 0.1 uM preincubated with MgCl2 for 10 mins followed by NADPH addition measured immediately by LC-MS/MS analysis; assay type: ADME, Microsome; settings: read-out: Stability
[14] = Stability in human liver microsomes assessed as parent compound remaining at 0.1 uM preincubated with MgCl2 for 10 mins followed by NADPH addition measured after 7 mins by LC-MS/MS analysis; assay type: ADME, Microsome; settings: read-out: Stability
[15] = Stability in human liver microsomes assessed as parent compound remaining at 0.1 uM preincubated with MgCl2 for 10 mins followed by NADPH addition measured after 17 mins by LC-MS/MS analysis; assay type: ADME, Microsome; settings: microsomes, 17 min, 0.1 µM
[16] = Stability in human liver microsomes assessed as parent compound remaining at 0.1 uM preincubated with MgCl2 for 10 mins followed by NADPH addition measured after 30 mins by LC-MS/MS analysis; assay type: ADME, Microsome; settings: microsomes, 0.5 h, 0.1 µM
[17] = Stability in human liver microsomes assessed as parent compound remaining at 0.1 uM preincubated with MgCl2 for 10 mins followed by NADPH addition measured after 60 mins by LC-MS/MS analysis; assay type: ADME, Microsome; settings: read-out: Stability
[18] = Metabolic bioavailability in human liver microsomes at 0.1 uM preincubated with MgCl2 for 10 mins followed by NADPH addition measured within 60 mins by LC-MS/MS analysis; assay type: ADME, Microsome

Row | Structure (SMILES) | CC50 at 72 h [2] | EC50 (Hepatitis C virus [3]) | further results
1 | C[C@@]1(O)[C@H](O)[C@@H](CO)O[C@H]1n1ccnc(N)c1=O | > 100 µM | – | inhibition at 100 µM (Hepatitis C virus [1]): 22.3%
2 | CC(C)OC(=O)[C@H](C)N[P@](=O)(OC[C@H]1O[C@@H](n2ccc(=O)n(C(C)OC(=O)OC3CCCCC3)c2=O)[C@](C)(F)[C@@H]1O)Oc1ccccc1 (some centres undefined) | > 10 µM | 0.5 µM | inhibition at 10 µM (Hepatitis C virus [4]): 99.9%
3 | CC(C)OC(=O)[C@H](C)N[P@](=O)(OC[C@H]1O[C@@H](n2ccnc(N)c2=O)[C@](C)(O)[C@@H]1O)Oc1ccccc1 | 59.6 µM | 24.4 µM | inhibition at 100 µM (Hepatitis C virus [1]): 99.8%
4 | C[C@@]1(O)[C@H](O)[C@@H](CO)O[C@H]1n1cc(Br)ncc1=O | > 100 µM | > 100 µM | –
5 | CCNc1nccn([C@@H]2O[C@H](CO)[C@@H](O)[C@@]2(C)O)c1=O | > 100 µM | > 100 µM | –
6 | CC(C)OC(=O)[C@H](C)N[P@](=O)(OC[C@H]1O[C@@H](n2ccc(Oc3ccccc3)nc2=O)[C@](C)(F)[C@@H]1O)Oc1ccccc1 | > 20 µM | > 20 µM | inhibition at 20 µM (Hepatitis C virus [5]): 0%
7 | C[C@]1(CO)O[C@@H](n2ccnc(N)c2=O)[C@H](O)[C@@H]1O | > 100 µM | > 100 µM | –
8 | CC(C)OC(=O)[C@H](C)N[P@](=O)(OC[C@H]1O[C@@H](n2cc(C(N)=O)ncc2=O)[C@](C)(O)[C@@H]1O)Oc1ccccc1 | > 100 µM | > 100 µM | –
9 | CCNc1nccn([C@@H]2O[C@](C)(CO)[C@@H](O)[C@H]2O)c1=O | > 100 µM | > 100 µM | –
10 | CCOC(=O)OCn1c(=O)ccn([C@@H]2O[C@H](CO[P@@](=O)(N[C@@H](C)C(=O)OC(C)C)Oc3ccccc3)[C@@H](O)[C@@]2(C)F)c1=O | > 10 µM | 0.21 µM | inhibition at 10 µM (Hepatitis C virus [4]): 99.3%
11 | C=CCNc1ccn([C@@H]2O[C@H](CO[P@@](=O)(N[C@@H](C)C(=O)OC(C)C)Oc3ccccc3)[C@@H](O)[C@@]2(C)F)c(=O)n1 | > 20 µM | > 20 µM | inhibition at 20 µM (Hepatitis C virus [5]): 0%
12 | C=CCOc1ccn([C@@H]2O[C@H](CO[P@@](=O)(N[C@@H](C)C(=O)OC(C)C)Oc3ccccc3)[C@@H](O)[C@@]2(C)F)c(=O)n1 | > 20 µM | > 20 µM | inhibition at 20 µM (Hepatitis C virus [5]): 0%
13 | C[C@@]1(O)[C@H](O)[C@@H](CO)O[C@H]1n1cc(C(N)=O)ncc1=O | > 100 µM | > 100 µM | –
14 | CC(C)OC(=O)OC(C)n1c(=O)ccn([C@@H]2O[C@H](CO[P@@](=O)(N[C@@H](C)C(=O)OC(C)C)Oc3ccccc3)[C@@H](O)[C@@]2(C)F)c1=O (some centres undefined) | > 10 µM | 0.22 µM | inhibition at 10 µM (Hepatitis C virus [4]): 99.8%; half-life at 40 µM [6]: 16.4 h; remaining at 0 h, 40 µM [7]: 100%; remaining at 0.5 h, 40 µM [8]: 92.8%; remaining at 1 h, 40 µM [9]: 90%; remaining at 2 h, 40 µM [10]: 85.3%; remaining at 5 h, 40 µM [11]: 78.9%; t1/2 [12]: 0.225 h; remaining at 0 min, 0.1 µM [13]: 100%; remaining at 7 min, 0.1 µM [14]: 51.2%; Stability [15]: 12.8%; Stability [16]: 2.1%; remaining at 1 h, 0.1 µM [17]: 0%; Fh at 1 h, 0.1 µM [18]: 11.2%
15 | C[C@]1(CO)O[C@@H](n2ccnc(C(N)=O)c2=O)[C@H](O)[C@@H]1O | > 100 µM | > 100 µM | –
16 | C[C@@]1(O)[C@H](O)[C@@H](CO)O[C@H]1n1cc(Cl)nc(C(N)=O)c1=O | > 100 µM | 7.3 µM | –

Row | Structure (SMILES) | CC50 at 72 h [2] | EC50 (Hepatitis C virus [3]) | further results
17 | CCOC(=O)n1c(=O)ccn([C@@H]2O[C@H](CO[P@@](=O)(N[C@@H](C)C(=O)OC(C)C)Oc3ccccc3)[C@@H](O)[C@@]2(C)F)c1=O | > 10 µM | 0.65 µM | inhibition at 10 µM (Hepatitis C virus [4]): 100%
18 | CCNc1nccn([C@@H]2O[C@](C)(CO[P@@](=O)(N[C@@H](C)C(=O)OC(C)C)Oc3ccccc3)[C@@H](O)[C@H]2O)c1=O | > 100 µM | > 100 µM | –
19 | CC(C)OC(=O)[C@@H](C)N[P@@](=O)(OC[C@H]1O[C@@H](n2ccnc(N)c2=O)[C@](C)(O)[C@@H]1O)Oc1ccccc1 | > 100 µM | > 100 µM | –
20 | CCCCCOC(=O)n1c(=O)ccn([C@@H]2O[C@H](CO[P@@](=O)(N[C@@H](C)C(=O)OC(C)C)Oc3ccccc3)[C@@H](O)[C@@]2(C)F)c1=O | > 10 µM | 0.7 µM | inhibition at 10 µM (Hepatitis C virus [4]): 99.9%
21 | COc1ccn([C@@H]2O[C@H](CO[P@@](=O)(N[C@@H](C)C(=O)OC(C)C)Oc3ccccc3)[C@@H](O)[C@@]2(C)F)c(=O)n1 | > 20 µM | > 20 µM | inhibition at 20 µM (Hepatitis C virus [5]): 0%
22 | CCNc1nccn([C@@H]2O[C@H](CO[P@@](=O)(N[C@@H](C)C(=O)OC(C)C)Oc3ccccc3)[C@@H](O)[C@@]2(C)O)c1=O | > 100 µM | > 100 µM | –
23 | CC(C)OC(=O)[C@H](C)N[P@](=O)(OC[C@H]1O[C@@H](n2ccc(=O)n(C(=O)OCc3ccccc3)c2=O)[C@](C)(F)[C@@H]1O)Oc1ccccc1 | > 10 µM | 0.5 µM | inhibition at 10 µM (Hepatitis C virus [4]): 99.3%
24 | CCOC(=O)OC(C)n1c(=O)ccn([C@@H]2O[C@H](CO[P@@](=O)(N[C@@H](C)C(=O)OC(C)C)Oc3ccccc3)[C@@H](O)[C@@]2(C)F)c1=O (some centres undefined) | > 10 µM | 0.22 µM | inhibition at 10 µM (Hepatitis C virus [4]): 99.6%
25 | CC(C)OC(=O)[C@H](C)N[P@](=O)(OC[C@@]1(C)O[C@@H](n2ccnc(N)c2=O)[C@H](O)[C@@H]1O)Oc1ccccc1 | > 100 µM | 19.5 µM | inhibition at 100 µM (Hepatitis C virus [1]): 85.1%
26 | CC(C)OC(=O)[C@H](C)N[P@](=O)(OC[C@H]1O[C@@H](n2ccc(OC3CC3)nc2=O)[C@](C)(F)[C@@H]1O)Oc1ccccc1 | > 20 µM | > 20 µM | inhibition at 20 µM (Hepatitis C virus [5]): 0%
27 | C#CCOc1ccn([C@@H]2O[C@H](CO[P@@](=O)(N[C@@H](C)C(=O)OC(C)C)Oc3ccccc3)[C@@H](O)[C@@]2(C)F)c(=O)n1 | > 20 µM | 12.2 µM | inhibition at 20 µM (Hepatitis C virus [5]): 46.9%
28 | CC(C)=CCOc1ccn([C@@H]2O[C@H](CO[P@@](=O)(N[C@@H](C)C(=O)OC(C)C)Oc3ccccc3)[C@@H](O)[C@@]2(C)F)c(=O)n1 | > 20 µM | 0.2 µM | inhibition at 20 µM (Hepatitis C virus [5]): 99.9%
29 | CC(C)OC(=O)[C@H](C)N[P@](=O)(OC[C@H]1O[C@@H](n2ccc(OCc3ccccc3)nc2=O)[C@](C)(F)[C@@H]1O)Oc1ccccc1 | > 20 µM | > 20 µM | inhibition at 20 µM (Hepatitis C virus [5]): 0%
30 | CC=CCOc1ccn([C@@H]2O[C@H](CO[P@@](=O)(N[C@@H](C)C(=O)OC(C)C)Oc3ccccc3)[C@@H](O)[C@@]2(C)F)c(=O)n1 (mixture of isomers) | > 100 µM | 30.3 µM | inhibition at 100 µM (Hepatitis C virus [1]): 66.3%
31 | CC(C)OC(=O)[C@H](C)N[P@](=O)(OC[C@H]1O[C@@H](n2ccc(=O)[nH]c2=O)[C@](C)(F)[C@@H]1O)Oc1ccccc1 [SOFOSBUVIR] | > 20 µM | 0.18 µM | inhibition at 20 µM (Hepatitis C virus [5]): 99.9%
